Measurements reported in patent US8933037B2, “Methods involving PDGFRBETA inhibitors” (Medizinische Universitat Wien, priority 2009, dated 2015).
Entries after “also recorded” stand apart in the source; their conditions may differ.

Columns and labels:
NPM-ALK = biological target: T1, NPM-ALK (Homo sapiens, UniProt Q9UM73); conditions: cited from earlier work
T1 construct: the other entry of the earlier key: NPM1 (P06748, Nucleophosmin)

417 cells = experiment: Alamar Blue assay (apoptosis), 417 cells; type: cell-based, mouse
Experimental: (§1) Apoptosis rates were measured by Alamar Blue assays. The active ingredient of Alamar Blue is resazurin, a non-fluorescent dark blue indicator dye. It is able to permeate cells and is converted to resorufin, a fluorescent, bright red dye, in a reduction reaction by living (metabolically active) cells. The produced fluorescence is proportional to the number of metabolically active cells.
(§2) We incubated SR-786 and 417 cells treated with 0-20 μM imatinib with Alamar Blue for one hour at 37 degrees Celsius.

[1] = tested on: murine NPM-ALK and PDGFRB positive cell line 417; experiment: Cell number after three days culture with inhibitor, cell line 417; conditions: different concentrations, three days in RPMI medium
[2] = tested on: human ALK positive ALCL cell lines; conditions: cited from earlier work
SR-786 cells = experiment: Alamar Blue assay (apoptosis), SR-786 cells; type: cell-based, human
Experimental: as §1, §2

CD30 = conditions: cited from earlier work
Karpas-299 lymphomas = conditions: cited from earlier work
[3] = tested on: murine NPM-ALK positive cell line CD4-417 tumors; experiment: Murine xenograft model, CD4-417 cells in flank of SCID mice
[4] = tested on: human NPM-ALK positive and PDGFRB negative cell line SR-786; experiment: Cell number after three days culture with inhibitor, cell line SR-786; conditions: different concentrations, three days in RPMI medium
human ACLC/HD-cell lines = conditions: cited from earlier work
HD and ALCL = conditions: cited from earlier work

T1 sequence (Q9UM73 with tags, fused parts or gaps): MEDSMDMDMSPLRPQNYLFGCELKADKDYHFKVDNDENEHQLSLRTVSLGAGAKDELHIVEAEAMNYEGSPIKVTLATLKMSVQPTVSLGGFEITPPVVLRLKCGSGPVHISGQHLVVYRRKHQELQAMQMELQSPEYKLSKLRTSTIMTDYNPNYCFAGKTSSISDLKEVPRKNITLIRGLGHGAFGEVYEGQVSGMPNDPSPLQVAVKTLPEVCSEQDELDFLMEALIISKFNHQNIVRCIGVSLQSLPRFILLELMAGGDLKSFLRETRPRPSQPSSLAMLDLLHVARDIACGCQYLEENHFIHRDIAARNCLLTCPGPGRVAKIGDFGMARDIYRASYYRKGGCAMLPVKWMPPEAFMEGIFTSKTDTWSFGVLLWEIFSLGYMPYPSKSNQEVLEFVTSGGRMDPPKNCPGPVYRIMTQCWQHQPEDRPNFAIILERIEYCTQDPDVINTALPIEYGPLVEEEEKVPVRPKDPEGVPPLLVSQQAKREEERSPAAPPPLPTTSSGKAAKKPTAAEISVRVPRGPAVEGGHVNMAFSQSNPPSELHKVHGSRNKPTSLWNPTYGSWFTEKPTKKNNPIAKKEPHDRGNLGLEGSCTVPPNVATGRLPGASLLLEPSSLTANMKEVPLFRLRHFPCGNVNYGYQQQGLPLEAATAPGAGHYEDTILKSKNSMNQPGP

Cc1ccc(NC(=O)c2ccc(CN3CCN(C)CC3)cc2)cc1Nc1nccc(-c2cccnc2)n1 [imatinib, 4-[(4-methylpiperazin-1-yl)methyl]-N-[4-methyl-3-[(4-pyridin-3-ylpyrimidin-2-yl)amino]phenyl]benzamide]
binding to ALK (NPM-ALK): unable to bind ALK
sensitivity of NPM-ALK to imatinib treatment (NPM-ALK): insensitive
conversion of resazurin to resorufin, 417 cells at 0-10 μM (417 cells; 0-10 μM, Alamar Blue one hour at 37 degrees Celsius): responded similar to SR-786 cells
conversion of resazurin to resorufin (color change), 417 cells at 20 μM (417 cells; 20 μM, Alamar Blue one hour at 37 degrees Celsius): not able to induce the color change
apoptosis by Alamar Blue, 417 cells at 20 μM (417 cells; 20 μM, three days after treatment): strongly increased; also recorded: high apoptosis
apoptosis by Alamar Blue, 417 cells, dose dependence (417 cells; in vitro, 0-20 μM): increased apoptosis rates; also recorded: dose dependent apoptosis
cell number (antiproliferative effect), cell line 417 [1]: increasingly impaired; also recorded: strongly react; also recorded: reduced cell numbers; also recorded: dose dependent reduction in cell number
effect on ALCL cell lines [2]: unable to show effects
conversion of resazurin to resorufin, SR-786 cells (SR-786 cells; 0-20 μM, Alamar Blue one hour at 37 degrees Celsius): comparable rate, regardless of imatinib concentrations
apoptosis by Alamar Blue, SR-786 cells (SR-786 cells; up to 20 μM, three days): unaffected

COc1cc(N2CCC(N3CCN(C)CC3)CC2)ccc1Nc1ncc(Cl)c(Nc2ccccc2S(=O)(=O)C(C)C)n1 [NVP-TAE684]
CD30 expression (CD30): induced down-regulation
established Karpas-299 lymphomas in vivo (Karpas-299 lymphomas): induced regression
lymphomagenesis in two independent models of ALK-positive ALCL (Karpas-299 lymphomas; in vivo): suppress lymphomagenesis

Cc1cn(-c2cc(NC(=O)c3ccc(C)c(Nc4nccc(-c5cccnc5)n4)c3)cc(C(F)(F)F)c2)cn1 [nilotinib, 4-methyl-N-[3-(4-methyl-1H-imidazol-1-yl)-5-(trifluoromethyl)phenyl]-3-[(4-pyridin-3-ylpyrimidin-2-yl)amino]benzamide]
tumor weight vs untreated control tumors ([3]; after 6 days of treatment): drastically reduced
tumor size reduction ([3]; nilotinib treatment, xenografted mice): more than 59%
cell number (antiproliferative effect), cell line 417 [1]: strongly react; also recorded: dose dependent reduction in cell number
cell number / proliferation rates, cell line SR-786 [4]: remain unaffected

CNC(=O)c1cc(Oc2ccc(NC(=O)Nc3ccc(Cl)c(C(F)(F)F)c3)cc2)ccn1 [sorafenib, 4-[4-[[4-chloro-3-(trifluoromethyl)phenyl]carbamoylamino]phenoxy]-N-methyl-pyridine-2-carboxamide]
apoptosis in human ACLC/HD-cell lines (human ACLC/HD-cell lines): able to induce apoptosis
in vivo treatment of HD and ALCL (HD and ALCL): not effective
